According to PubChem BioAssay AID248 (DTP/NCI, 2004):
Values joined by “and” are separate entries in the source; they are usually repeats but may differ in a detail not shown here. Equal entries are not always repeated. Inconclusive results and toxic doses are left out. Cut-off read from the data, not from the text of the source: active = T/C of 150% or more; inactive = T/C below 125%.

Test system: L1210 leukemia ip in BDF1 mice, survival T/C
Assay: NCI In Vivo Anticancer Drug Screen. Data for tumor model L1210 Leukemia (intraperitoneal) in B6D2F1 (BDF1) mice
Conditions: endpoint: mean survival time, higher = longer survival
Method in brief: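 Tumor was transplanted into mice, which were then dosed with test compound or vehicle alone. Survival was recorded for each group, and the treated figure was expressed relative to the control figure.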

[1] = dose: 100.0 mg/kg/injection, schedule: Q04DX003 (ip), vehicle: saline with Tween-80
[2] = dose: 100.0 mg/kg/injection, schedule: Q04DX002 (ip), vehicle: Klucel (hydroxypropylcellulose) (HPC)
[3] = dose: 200.0 mg/kg/injection, schedule: Q04DX002 (ip), vehicle: Klucel (hydroxypropylcellulose) (HPC)
[4] = dose: 400.0 mg/kg/injection, schedule: Q04DX002 (ip), vehicle: Klucel (hydroxypropylcellulose) (HPC)
[5] = dose: 100.0 mg/kg/injection, schedule: Q04DX003 (ip), vehicle: saline
[6] = dose: 100.0 mg/kg/injection, schedule: Q01DX001 (ip), vehicle: carboxymethylcellulose (CMC)
[7] = dose: 200.0 mg/kg/injection, schedule: Q01DX001 (ip), vehicle: carboxymethylcellulose (CMC)
[8] = dose: 100.0 mg/kg/injection, schedule: Q01DX001 (ip), vehicle: saline with Tween-80
[9] = dose: 200.0 mg/kg/injection, schedule: Q01DX001 (ip), vehicle: saline with Tween-80
[10] = dose: 400.0 mg/kg/injection, schedule: Q01DX001 (ip), vehicle: saline with Tween-80
[11] = dose: 100.0 mg/kg/injection, schedule: Q01DX001 (ip), vehicle: saline
[12] = dose: 200.0 mg/kg/injection, schedule: Q01DX001 (ip), vehicle: saline
[13] = dose: 400.0 mg/kg/injection, schedule: Q01DX001 (ip), vehicle: saline
[14] = dose: 75.0 mg/kg/injection, schedule: Q01DX001 (ip), vehicle: saline

Measured: T/C

BrCc1cc2ccccc2cc1CBr
inactive: dose: 12.5 mg/kg/injection, schedule: Q01DX009 (ip), vehicle: Klucel (hydroxypropylcellulose) (HPC) 98 % of control | dose: 25.0 mg/kg/injection, schedule: Q01DX009 (ip), vehicle: Klucel (hydroxypropylcellulose) (HPC) 96 % of control | dose: 25.0 mg/kg/injection, schedule: Q04DX003 (ip), vehicle: saline with Tween-80 100 % of control | dose: 50.0 mg/kg/injection, schedule: Q01DX009 (ip), vehicle: Klucel (hydroxypropylcellulose) (HPC) 93 % of control and 107 % of control | dose: 50.0 mg/kg/injection, schedule: Q04DX003 (ip), vehicle: saline with Tween-80 104 % of control | [1] 96 % of control

Nc1ccccc1C(=O)N/N=C/c1cccc(O)c1
inactive: [2] 98 % of control | [3] 103 % of control | [4] 113 % of control

CN(C)S(=O)(=O)c1ccc(N)cc1
inactive: dose: 100.0 mg/kg/injection, schedule: Q01DX001 (ip), vehicle: other 91 % of control | dose: 200.0 mg/kg/injection, schedule: Q01DX001 (ip), vehicle: other 101 % of control | dose: 400.0 mg/kg/injection, schedule: Q01DX001 (ip), vehicle: other 90 % of control

CNCC/C=C1\c2ccccc2CCSc2ccccc21
inactive: dose: 25.0 mg/kg/injection, schedule: Q04DX003 (ip), vehicle: saline 98 % of control | dose: 50.0 mg/kg/injection, schedule: Q04DX003 (ip), vehicle: saline 101 % of control | [5] 95 % of control and 101 % of control

CN(C)C(=NN=C(N(C)C)N(C)C)N(C)C
inactive: dose: 12.5 mg/kg/injection, schedule: Q04DX003 (sc), vehicle: saline 102 % of control | dose: 25.0 mg/kg/injection, schedule: Q04DX003 (sc), vehicle: saline 107 % of control | dose: 50.0 mg/kg/injection, schedule: Q04DX003 (sc), vehicle: saline 100 % of control | dose: 100.0 mg/kg/injection, schedule: Q04DX003 (sc), vehicle: saline 98 % of control

c1ccc2c(c1)CCN(C1=NCCO1)C2
inactive: dose: 9.5 mg/kg/injection, schedule: Q01DX001 (ip), vehicle: saline 112 % of control | dose: 10.0 mg/kg/injection, schedule: Q04DX003 (ip), vehicle: saline 97 % of control | dose: 19.0 mg/kg/injection, schedule: Q01DX001 (ip), vehicle: saline 100 % of control | dose: 20.0 mg/kg/injection, schedule: Q04DX003 (ip), vehicle: saline 94 % of control | dose: 38.0 mg/kg/injection, schedule: Q01DX001 (ip), vehicle: saline 101 % of control | dose: 40.0 mg/kg/injection, schedule: Q04DX003 (ip), vehicle: saline 90 % of control

CC(=O)NC1CCCCC1CC1CCCCC1 (stereo not drawn)
inactive: dose: 75.0 mg/kg/injection, schedule: Q01DX009 (ip), vehicle: Klucel (hydroxypropylcellulose) (HPC) 103 % of control | dose: 100.0 mg/kg/injection, schedule: Q04DX003 (ip), vehicle: Klucel (hydroxypropylcellulose) (HPC) 102 % of control | dose: 150.0 mg/kg/injection, schedule: Q01DX009 (ip), vehicle: Klucel (hydroxypropylcellulose) (HPC) 93 % of control | dose: 200.0 mg/kg/injection, schedule: Q04DX003 (ip), vehicle: Klucel (hydroxypropylcellulose) (HPC) 98 % of control | dose: 300.0 mg/kg/injection, schedule: Q01DX009 (ip), vehicle: Klucel (hydroxypropylcellulose) (HPC) 96 % of control | dose: 400.0 mg/kg/injection, schedule: Q04DX003 (ip), vehicle: Klucel (hydroxypropylcellulose) (HPC) 98 % of control

COc1cc(C=Nc2ccc(Cl)cc2)ccc1N(CCCl)CCCl
inactive: dose: 21.0 mg/kg/injection, schedule: Q01DX015 (ip), vehicle: carboxymethylcellulose (CMC) 110 % of control | dose: 36.0 mg/kg/injection, schedule: Q01DX015 (ip), vehicle: carboxymethylcellulose (CMC) 95 % of control | dose: 50.0 mg/kg/injection, schedule: Q01DX001 (ip), vehicle: carboxymethylcellulose (CMC) 120 % of control | [6] 108 % of control | dose: 133.0 mg/kg/injection, schedule: Q01DX001 (ip), vehicle: carboxymethylcellulose (CMC) 107 % of control | [7] 117 % of control

Cc1c(C)c2c(c(C)c1O)CC(CO)CO2 (stereo not drawn)
inactive: [8] 92 % of control | [9] 101 % of control | [10] 87 % of control

O=C(NNC(=O)c1cccc([N+](=O)[O-])c1)C(=O)NNC(=O)c1cccc([N+](=O)[O-])c1
inactive: dose: 100.0 mg/kg/injection, schedule: Q01DX009 (ip), vehicle: Klucel (hydroxypropylcellulose) (HPC) 100 % of control | dose: 200.0 mg/kg/injection, schedule: Q01DX009 (ip), vehicle: Klucel (hydroxypropylcellulose) (HPC) 110 % of control | dose: 400.0 mg/kg/injection, schedule: Q01DX009 (ip), vehicle: Klucel (hydroxypropylcellulose) (HPC) 105 % of control

CSc1ccc(C2NC(=O)NC2=O)cc1 (stereo not drawn)
inactive: dose: 50.0 mg/kg/injection, schedule: Q01DX001 (ip), vehicle: saline 102 % of control | [11] 100 % of control | [12] 96 % of control | [13] 102 % of control

CCc1ccc(CCSCCc2ccc(CC)c[n+]2[O-])[n+]([O-])c1
inactive: [11] 96 % of control | [12] 100 % of control

CCCCCCCC/C=C/CCCCCCCC(=O)NCC[N+]1(C)CCCCC1
inactive: [14] 95 % of control

O=S(=O)(c1ccccc1)C1CC1c1ccc(Cl)cc1 (stereo not drawn)
inactive: [11] 97 % of control | [5] 104 % of control | [12] 92 % of control | dose: 200.0 mg/kg/injection, schedule: Q04DX003 (ip), vehicle: saline 96 % of control | [13] 98 % of control | dose: 400.0 mg/kg/injection, schedule: Q04DX003 (ip), vehicle: saline 96 % of control

COc1ccc(OCCOC(C)=O)cc1
inactive: [2] 107 % of control | [3] 100 % of control | [4] 103 % of control

Cc1ccc(C(C)C)c(OC(=O)Nc2ccc(S(=O)(=O)N(C)C)cc2)c1
inactive: [11] 103 % of control | [12] 100 % of control | [13] 101 % of control

O=C(Nc1ccc2c(c1)C(=O)c1ccccc1-2)c1ccccc1
inactive: [8] 88 % of control | [9] 88 % of control | [10] 88 % of control

O=CN/N=C/c1ccc([N+](=O)[O-])cc1
inactive: [14] 92 % of control | dose: 150.0 mg/kg/injection, schedule: Q01DX001 (ip), vehicle: saline 87 % of control | dose: 300.0 mg/kg/injection, schedule: Q01DX001 (ip), vehicle: saline 89 % of control

C/C=C/C(=O)NCC(=O)O
inactive: [11] 90 % of control | [12] 97 % of control | [13] 103 % of control

CC1OC(=O)NC1C(=O)O (stereo not drawn)
inactive: [11] 120 % of control | dose: 100.0 mg/kg/injection, schedule: Q01DX009 (ip), vehicle: saline 91 % of control | [1] 106 % of control | [12] 98 % of control | dose: 200.0 mg/kg/injection, schedule: Q01DX009 (ip), vehicle: saline 101 % of control | dose: 200.0 mg/kg/injection, schedule: Q04DX003 (ip), vehicle: saline with Tween-80 103 % of control | [13] 101 % of control | dose: 400.0 mg/kg/injection, schedule: Q01DX009 (ip), vehicle: saline 89 % of control | dose: 400.0 mg/kg/injection, schedule: Q04DX003 (ip), vehicle: saline with Tween-80 95 % of control

Cc1c(C2CCC(=O)C2)c2ccccc2n1C (stereo not drawn)
inactive: [6] 93 % of control | [7] 89 % of control | dose: 400.0 mg/kg/injection, schedule: Q01DX001 (ip), vehicle: carboxymethylcellulose (CMC) 88 % of control

COc1cc2c(cc1OC)C1CC3(CC4c5cc(OC)c(OC)cc5CCN4CC3CO)C(CO)CN1CC2 (stereo not drawn)
inactive: dose: 4.0 mg/kg/injection, schedule: Q04DX003 (ip), vehicle: water 101 % of control | dose: 8.0 mg/kg/injection, schedule: Q04DX003 (ip), vehicle: water 101 % of control | dose: 16.0 mg/kg/injection, schedule: Q04DX003 (ip), vehicle: water 110 % of control | dose: 32.0 mg/kg/injection, schedule: Q04DX003 (ip), vehicle: water 103 % of control | dose: 64.0 mg/kg/injection, schedule: Q04DX003 (ip), vehicle: water 101 % of control
